Measurements as given in patent US9561201B2, “Therapeutic compounds” (Fibrotech Therapeutics Pty Ltd, priority 2006, dated 2017).
Entries after “also recorded” stand apart in the source; their conditions may differ.

Tests used:
[1] = test system: neonatal SD rat cardiac fibroblasts; assay: TGF-β-stimulated fibrosis (proline incorporation) in neonatal cardiac fibroblasts (Example 4); assay type: cell-based
Method: Matrix synthesis may be stimulated by both angiotensin II or transforming growth factor beta (TGF-β).
Neonatal SD rat cardiac fibroblasts (NCFs) were isolated from one-day-old pups with enzymatic digestion. NCFs were purified by percoll gradient and seeded with DMEM in the present of 1% antibiotic/antimycotic (AB/AM) and 10% fatal bovine serum (FBS). NCFs were then subcultured when they are about 80% confluence. The second passage of NCFs was used for the assays.
NCFs were seeded at 25,000 cells/well in 12-well plates and incubated at 37° C. and 5% CO2 overnight in DMEM with 1% AB/AM and 10% FBS. Cells were then washed with DMEM and then the media replaced with DMEM/F12 with 1% AB/AM, 0.5% Bovine Serum Albumin (BSA) and Vitamin C, before being incubated at 37° C. and 5% CO2 for 24 hours.
The effect of FT011 on TGF-β- or angiotensin II-stimulated fibrosis in the neonatal SD rat cardiac fibroblasts was investigated.

[2] = test system: Mesangial cells; assay: PDGF stimulated matrix synthesis (proline incorporation) in mesangial cells (Example 3); assay type: cell-based, rat
Text: Matrix synthesis may be stimulated by platelet derived growth factor (PDGF).

[3] = test system: SD rats post myocardial infarction (LAD ligation); assay: Myocardial infarct rats treated with FT011; assay type: in vivo
Method: Twenty rats underwent ligation of left anterior descending coronary artery (LAD) to induce anterior myocardial infarction (MI). Briefly, surgery performed under aseptic conditions on a heated table (37° C.) to maintain body warmth during the course of the procedure. The chest swabbed with chlorhexidine in 70% ethanol to disinfect the area. An incision made into the skin to the left of the sternum and the underlying muscle layers blunt dissected. A thoracotomy performed through the fourth to fifth intercostal space and the ribs held open using retractors to enable access to the heart. The pericardial sac surrounding the heart torn open and a 6-0 prolene suture used to ligate the LAD immediately. Visible blanching and hypokinesis of the anterior wall of the left ventricle and swelling of the left atrium are indicative of successful ligation. The control groups (sham+vehicle, sham+FT011) underwent a sham operation consisting of the same procedure except that the suture passed through the myocardium beneath the LAD without ligation.
Echocardiography was performed on all animals 2 days post surgery and randomised to sham and MI groups. Animals were re-randomised at day 7 post surgery (10 animal each) to receive: vehicle or FT011 (100 mg/kg bid gavage). Every week, systolic blood pressure (SBP) was determined in preheated conscious rats via tail-cuff plethysmography using a non-invasive blood pressure (NIBP) controller and Powerlab (AD instruments, NSW, Australia). Cardiac function was assessed by echocardiography and cardiac catheterization prior to sacrificing at day 35 post surgery for all animals.
Echocardiography, including Doppler examination, was performed using a Vivid 7 Dimension (GE Vingmed, Horten, Norway) echocardiograph with a 10 MHz phased array probe. Electrocardiographic data were acquired simultaneously. End-diastole was defined as the peak of the R wave, and end-systole was defined as the end of the T wave.
Animals were anaesthetized with pentobarbitone sodium 60 mg/kg i.p. injection. Animals underwent echocardiographic interrogation in the left recumbent position. M-mode echocardiography was performed using a parasternal short axis view at the level of the papillary muscles. Left ventricular posterior (LVPW) and anterior wall thickness (LVAW) were obtained during diastole (d) and systole (s), as were the left ventricular internal diameter at end-diastole (LVIDd) and end-systole (LVIDs). From the para-sternal short axis view, the end diastolic and end systolic cross sectional blood pool areas were measured. Fractional area change (FAC) was then calculated according to the formulae: FAC=[(end-diastolic area-end-systolic area)/end-diastolic area]*100.
The apical 4-chamber view was used to assess early and late transmitral peak diastolic flow velocity (E and A waves), using pulsed wave Doppler with a sample volume of 2 mm placed at the tips of the mitral valve leaflets. All Doppler spectra were recorded for 10 cardiac cycles at a sweep speed of 200 mm/s. All parameters were assessed using an average of three beats, and calculations were made in accordance with the American Society of Echocardiography guidelines. All data were acquired and analyzed by a single blinded observer using EchoPAC (GE Vingmed) offline processing.
Post echocardiography, animals were placed on a warming pad (37° C.), intubated using a 14 gauge catheter, and ventilated using positive pressure with a tidal volume of […] at 70 breaths per minute using room air. Animals were secured in a recumbent position and the right jugular vein was cannulated with 0.9% NaCl infused at 100 μL per hour. […] The right internal carotid was then identified and ligated cranially. A 2F miniaturized combined conductance catheter-micromanometer was inserted into the carotid artery to obtain aortic blood pressure, then advanced into the left ventricle until stable pressure volume (PV) loops were obtained.

[4] = test system: rat mesangial cell line; assay: TGF-β stimulated 3H-proline incorporation in mesangial cells (Example 5); assay type: cell-based; conditions: for Mesangial Cell Assay TGF-β % reduction of TGF-β stimulation_proline inc.: 5 ng/mL TGF-β1, 44 h
[5] = MI rats, 100 mg/kg bid gavage from day 7, day 35 post surgery
[6] = MI rats, 100 mg/kg bid gavage, echocardiography
[7] = MI rats, 100 mg/kg bid gavage, listed as FT011, 100 mg/kg

C#CCOc1ccc(/C=C/C(=O)Nc2ccccc2C(=O)O)cc1OC [Analogue 11]
TGF-β-stimulated fibrosis (proline incorporation) [1]: inhibited | PDGF-stimulated matrix synthesis (proline incorporation) ([2]; 30 and 100 μM): inhibits | potency at reducing proline incorporation compared with tranilast ([2]; PDGF stimulation, 30 μM): more potent | Myocardial infarct size, treated versus untreated MI groups ([3]; 100 mg/kg bid gavage, P=0.36): similar | LVED ([3]; MI rats, 100 mg/kg bid gavage): 0.53 ± 0.04 mL | LVES ([3]; MI rats, 100 mg/kg bid gavage): 0.15 ± 0.02 mL | LV/BW [3, 5]: 0.22 ± 0.004 | RV/BW [3, 5]: 0.048 ± 0.002 | adverse LV remodelling on echocardiography (LVIDd, LVIDs, FAC, E:A ratio, deceleration time) ([3]; MI rats, 100 mg/kg bid gavage, 5 weeks post MI): significantly attenuated | Deceleration time [3, 6]: 38.64 ± 1.2 ms | E:A ratio [3, 6]: 2.00 ± 0.26 | FAC % [3, 6]: 42.69 ± 2.3 % | LVIDd [3, 6]: 0.92 ± 0.03 cm | LVIDs [3, 6]: 0.70 ± 0.03 cm | collagen subtype I and III immunostaining in non-infarct zone [3, 7]: reduction in immunostaining; also recorded: attenuated | infiltration of ED-1 positive macrophages in non-infarct zone [3, 7]: reduction in macrophage number; also recorded: attenuated | interstitial fibrosis in non-infarct zone (Masson's trichrome) [3, 7]: marked reduction; also recorded: attenuated | Mesangial Cell Assay TGF-β % reduction of TGF-β stimulation_proline inc. ([4]; @ 3 μM): 15% @ 3 | Mesangial Cell Assay TGF-β % reduction of TGF-β stimulation_proline inc. ([4]; @ 10 μM): 20-50% @ 10 | Mesangial Cell Assay TGF-β % reduction of TGF-β stimulation_proline inc. ([4]; @ 30 μM): 50-75% @ 30 | Mesangial Cell Assay TGF-β % reduction of TGF-β stimulation_proline inc. ([4]; @ 100 μM): 60-100% @ 100 | Collagen synthesis ([4]; inhibition ranked against tranilast (T) or FT11): >T
